Results reported in patent US10765669B2, “Pharmaceutical composition for preventing or treating DYRK-related diseases, containing pyridine-based compound as active ingredient” (KOREA RESEARCH INSTITUTE OF BIOSCIENCE AND BIOTECHNOLOGY, priority 2016, dated 2020).

Tests used:
[1] = biological target: T1, DYRK1A (Homo sapiens, UniProt Q13627); experiment: Inhibition of Tau protein (Thr212) phosphorylation in 293T cells overexpressing Tau and DYRK1A; assay type: cell-based; conditions: for IC50: 293T cells overexpressing Tau and DYRK1A
T1 construct: expressed in transfected cells; host or cells: 293T

[2] = biological target: C-met kinase (Homo sapiens, UniProt P08581); conditions: existing studies; ATP competitive manner; cited from earlier work
C-met kinase, sequence (P08581 25-1390): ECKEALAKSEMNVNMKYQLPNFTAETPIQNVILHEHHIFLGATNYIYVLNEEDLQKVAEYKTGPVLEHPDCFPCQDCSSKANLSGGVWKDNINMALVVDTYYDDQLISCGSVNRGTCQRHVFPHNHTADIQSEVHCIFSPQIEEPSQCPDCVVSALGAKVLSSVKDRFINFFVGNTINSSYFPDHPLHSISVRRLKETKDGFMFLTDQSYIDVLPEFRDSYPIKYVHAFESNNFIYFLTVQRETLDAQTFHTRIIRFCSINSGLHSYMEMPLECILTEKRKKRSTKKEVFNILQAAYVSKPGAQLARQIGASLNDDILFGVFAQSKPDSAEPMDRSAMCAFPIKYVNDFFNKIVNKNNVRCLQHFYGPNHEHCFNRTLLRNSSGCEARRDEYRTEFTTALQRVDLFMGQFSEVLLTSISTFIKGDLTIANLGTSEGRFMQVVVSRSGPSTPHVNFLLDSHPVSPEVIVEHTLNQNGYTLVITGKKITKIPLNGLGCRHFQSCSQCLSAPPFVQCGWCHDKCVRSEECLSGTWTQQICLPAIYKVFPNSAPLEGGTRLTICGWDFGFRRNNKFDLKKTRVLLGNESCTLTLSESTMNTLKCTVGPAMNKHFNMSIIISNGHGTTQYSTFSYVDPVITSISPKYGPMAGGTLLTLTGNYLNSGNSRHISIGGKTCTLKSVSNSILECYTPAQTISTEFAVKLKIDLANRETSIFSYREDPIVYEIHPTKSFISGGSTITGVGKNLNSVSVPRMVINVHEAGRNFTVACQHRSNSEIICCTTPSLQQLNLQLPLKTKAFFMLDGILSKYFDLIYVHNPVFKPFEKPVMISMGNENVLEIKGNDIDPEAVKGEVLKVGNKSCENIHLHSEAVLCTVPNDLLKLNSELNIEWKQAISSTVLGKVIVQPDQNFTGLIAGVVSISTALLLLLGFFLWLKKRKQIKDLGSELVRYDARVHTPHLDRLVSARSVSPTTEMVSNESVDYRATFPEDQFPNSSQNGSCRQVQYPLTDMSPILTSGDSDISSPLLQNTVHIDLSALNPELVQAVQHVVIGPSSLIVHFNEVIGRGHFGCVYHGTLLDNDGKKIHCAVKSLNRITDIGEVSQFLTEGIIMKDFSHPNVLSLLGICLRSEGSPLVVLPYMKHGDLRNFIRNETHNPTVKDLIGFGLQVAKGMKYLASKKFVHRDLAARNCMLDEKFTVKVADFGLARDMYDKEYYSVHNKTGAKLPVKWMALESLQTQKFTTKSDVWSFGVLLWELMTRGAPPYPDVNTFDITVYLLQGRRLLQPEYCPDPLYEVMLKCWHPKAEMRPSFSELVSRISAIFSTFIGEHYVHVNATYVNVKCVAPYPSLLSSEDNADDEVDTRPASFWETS

[3] = biological target: GSK3β (Homo sapiens, UniProt P49841); experiment: In vitro CMGC kinase assay, GSK3β; assay type: biochemical; conditions: in vitro kinase panel; next to DYRK1A
GSK3β, sequence (P49841 whole entry, species assumed): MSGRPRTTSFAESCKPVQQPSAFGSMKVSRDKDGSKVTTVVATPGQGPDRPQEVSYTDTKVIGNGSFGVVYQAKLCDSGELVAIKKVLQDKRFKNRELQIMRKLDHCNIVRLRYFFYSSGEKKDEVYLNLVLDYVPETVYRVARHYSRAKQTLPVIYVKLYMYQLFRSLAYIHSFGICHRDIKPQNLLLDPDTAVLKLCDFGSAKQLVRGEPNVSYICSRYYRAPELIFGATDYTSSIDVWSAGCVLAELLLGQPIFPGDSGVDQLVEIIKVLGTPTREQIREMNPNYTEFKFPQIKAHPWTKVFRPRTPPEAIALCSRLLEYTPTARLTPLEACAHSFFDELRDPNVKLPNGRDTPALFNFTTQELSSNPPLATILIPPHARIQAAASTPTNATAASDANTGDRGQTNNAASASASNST

[4] = biological target: T1, DYRK1A; experiment: NFAT signaling reporter (NFAT-RE-luciferase), cell-based DYRK1A efficacy evaluation in 293T cells; conditions: for luciferase increase effect / activity level compared with harmine and CX-4945: 10 μM; for luciferase increase effect: 293T cells, NFAT-RE-luciferase reporter, IM + PMA, DYRK1A overexpressed, among 570 candidates; for activity level compared with harmine and CX-4945: same reporter conditions; for EC50 of luciferase increase effect, fold lower than harmine and CX-4945: NFAT reporter, concentration gradient (FIG. 4); for luciferase activity compared with condition without DYRK1A overexpression: treated with 3 μM, concentration gradient, same conditions
Procedure: With respect to the 570 compounds identified as candidate DYRK1A inhibitors through the virtual screening, a secondary effect evaluation was carried out using NFAT signaling reporter which is the already well-established cell-based DYRK1A effect evaluation system (FIG. 3). NFAT signaling reporter has a very high level of dependence on DYRK1A, and thus is effective in the identifying experiment of the proper candidate DYRK1A inhibitors. DYRK1A is known to regulate calcineurin/Nuclear Factor of Activated T cells (NFAT) signals and play an important role in the stage of human development process. NFATc1 transcription factor is usually present as a protein that is phosphorylated in the cytoplasm when the Ca^2+ concentration of the cells is increased, NFATc1 is dephosphorylated by calcineurin phosphatase which is a Ca^2+-dependent protein, and NFATc1 is moved into the nucleus. NFATc1 which has entered into the nucleus and protein partner NFATn form a transcription complex, and the complex binds to the promoter of the target gene to induce the target gene expression. In contrast, DYRK1A phosphorylates NFATc1 to inhibit the movement of NFATc1 into the nucleus, and results in the inhibition of the expression of the target gene. The DYRK1A-inhibitory effect of the 570 candidates was confirmed through the transcription activity of NFATc1, and for this, a luciferase reporter containing NFAT response element (NFAT-RE) useful to measure the transcription activity of NFATc1 was used. A NFAT-RE-luciferase reporter was over-expressed in 293T cells, and was then treated with Ionomycin (IM) and phorbol 12-myristate 13-acetate (PMA) to increase the intracellular concentration of Ca^2+. As a result, the expression of luciferase was increased sharply. […] If the candidate drug treatment in this condition inhibits DYRK1A, the luciferase will be increased.

[5] = biological target: T1, DYRK1A; experiment: In vitro kinase assay with separated and purified DYRK1A protein; assay type: biochemical

SMILES | IC50 [1] [nM] | inhibitory effect on Tau phosphorylation, times stronger than harmine, INDY and proINDY ([1]; same experimental conditions) | C-met kinase inhibition [2] | inhibitory effect on GSK3β [3] | luciferase increase effect [4] | activity level compared with harmine and CX-4945 [4] | EC50 of luciferase increase effect, fold lower than harmine and CX-4945 [4] [times] | luciferase activity compared with condition without DYRK1A overexpression [4] | inhibition at 0.1 µM ([5]; 100 nM concentration, read-out: inhibitory effect on DYRK1A) [%] | rank of inhibitory effect among DYRK family and CMGC kinases ([5]; in vitro kinase panel (FIG. 6)) | IC50 ([5]; predicted from inhibition at 100 nM) [nM]
CC(=O)N1CCC(n2cc(-c3cnc(N)c(-c4nc5cnccc5o4)c3)cn2)CC1 [formula 2] | ~50 | 10-60 times | inhibitors of the C-met kinase | high inhibitory effect | highest luciferase increase effect | clearly higher | 10 | higher than the luciferase activity of the condition that DYRK1A was not overexpressed | ~95 | strongest inhibitory effect on DYRK1A | ~10
Nc1ncc(-c2cnn(C3CCNCC3)c2)cc1-c1nc2cnccc2o1 [formula 3] |  |  | inhibitors of the C-met kinase |  | highest luciferase increase effect | clearly higher | 10 | higher than the luciferase activity of the condition that DYRK1A was not overexpressed |  |  | 
Cn1cc(-c2cnc(N)c(-c3nc4cnccc4o3)c2)cn1 [formula 4] |  |  |  |  | highest luciferase increase effect | clearly higher |  |  |  |  | 
CCN1/C(=C/C(C)=O)Sc2ccc(OC(C)=O)cc21 [proINDY, reference compound] | ~3000 |  |  |  |  |  |  |  |  |  | 
